Common to all, as to format: in vivo
The test system of experiment [1] is Nicotiana benthamiana. Put plainly: Test Example 5: growth promotion under low-temperature stress by hydroponics of Nicotiana benthamiana, 1 ppm. Particulars: 1 ppm in medium, low-temperature stress 7 days at 1.5±1.0° C., green leaf area 3 days later, equation (1). As to the method:
(§1) Test for Evaluating Growth Promotion Under Low-Temperature Stress by Hydroponics of Nicotiana benthamiana
A DMSO solution, which contained one of the compounds 2, 4, 5, 6, 11, 12, 17, 20, 21, 28, 30, 34, 36, 37, 51, 52, 53, 55, 56, 58, 59, 60, 64, 65, 66, 68, 69, 70, 74, 77, 82, 83, 84, 86 and 87 of the present invention at a concentration of 1,000 ppm, was prepared. The DMSO solution of the compound of the present invention was added at a volume ratio of 1/1,000 to the Murashige•Scoog medium of a ½-fold concentration (a medium containing 2.3 g of mixed salts for the Murashige•Scoog medium (manufactured by Wako Pure Chemical Industries, Ltd.), 200 mg of Myo-inositol (manufactured by Sigma-Aldrich Co. LLC.), 2 mg of nicotinic acid (manufactured by Wako Pure Chemical Industries, Ltd.), 2 mg of pyridoxine hydrochloride (manufactured by Wako Pure Chemical Industries, Ltd.), 20 mg of thiamine hydrochloride (manufactured by Wako Pure Chemical Industries, Ltd.), 20 g of sucrose (manufactured by Wako Pure Chemical Industries, Ltd.), and 1 g of MES (manufactured by DOJINDO LABORATORIES) per 1 L of water and having pH adjusted to 5.8), thereby preparing a medium containing the compound of the present invention at a concentration of 1 ppm.
(§2) Seeds of Nicotiana benthamiana were seeded in the 5 μL of the medium and cultured overnight at 22° C. Thereafter, 45 μL of the medium containing the compound of the present invention at a concentration of 1 ppm was added thereto, and the seeds are cultured for 7 days at 22° C., an illuminance of 4,000 lux, and a day length of 16 hours, and the nursery plants raised from the Nicotiana benthamiana were treated with the compound. Moreover, instead of the above medium, a test plot, which was obtained by performing the same treatment by using a medium prepared by adding DMSO to the Murashige•Scoog medium of ½-fold concentration at a volume ratio of 1/1,000, was used as a control plot not treated with the compound.
(§3) The nursery plants of the Nicotiana benthamiana treated with the compound were subjected to low-temperature treatment by being cultivated for 7 days at 1.5±1.0° C., an illuminance of 2,000 lux, and a day length of 16 hours.
The nursery plants of the Nicotiana benthamiana having undergone the low-temperature stress treatment were cultured for 3 days at 22° C., an illuminance of 4,000 lux, and a day length of 16 hours. Thereafter, the area of green leaf was quantified by Scanalyzer HTS (manufactured by LemnaTec GmbH). Moreover, the value of the control plot not treated with the compound that had not yet been subjected to the low-temperature stress treatment was measured in the same manner. A value of a relative leaf area was calculated based on the following equation (1), and if the value of a relative leaf area was 5 or greater, the compound was evaluated to have a mitigating effect. As a result of the evaluation, it was confirmed that when the plant was treated with one of the compounds 2, 4, 5, 6, 11, 12, 17, 20, 21, 28, 30, 34, 36, 37, 51, 52, 53, 55, 56, 58, 59, 60, 64, 65, 66, 68, 69, 70, 74, 77, 82, 83, 84, 86 and 87 of the present invention at 1 ppm, the value of a relative leaf area was 5 or greater, compared to the area of green leaf of the control plot not treated with compound. Accordingly, it was confirmed that the treatment using the compound of the present invention brings about a growth promotion effect.
Relative leaf area=100*(a green area of a plot treated with the compound of the present invention−a green area of a control plot not treated with the compound of the present invention)/(a green area of a control plot not treated with the compound of the present invention that has not yet been subjected to low-temperature stress treatment−a green area of a control plot not treated with the compound of the present invention) Equation (1): […]

Experiment [2] relates to Rice (variety: Nipponbare). The experiment is described as follows: Test Example 1: promotion of root growth by hydroponics of rice, 10 ppm. The conditions noted are these: Oryza sativa, hydroponic solution containing the test compound at 10 ppm, average of 4 or 5 individuals, read-out: Relative value of length of seminal root (%-untreated control plot). As to the method: (§4) Test for Evaluating Promotion of Root Growth by Hydroponics of Rice
(§5) Rice (variety: Nipponbare)
Rice seeds were soaked in a 1% aqueous sodium hypochlorite solution for 10 minutes, then soaked in a 70% ethanol solution for surface sterilization, and then washed with distilled water. The sterilized seeds were soaked in a hydroponic solution containing the test compound described above at 10 ppm and incubated in a dark place for 3 days at 28° C. to perform treatment for hastening germination.
Thereafter, 30 ml of hydroponic solution containing the test compound at 10 ppm was dispensed in a plastic tube (diameter of 20 mm×height of 113 mm) of which the side was covered with cardboard to block light. A float prepared using a styrene board and vinyl mesh was floated, and the rice seeds that had undergone the treatment for hastening germination were placed on the float on the surface of the hydroponic solution. The seeds were cultivated for 3 days at 26° C., an illuminance of 4,000 lux of the top surface of the tube, a humidity of 50%, and a day length of 16 hours.
(§6) The nursery plants of rice obtained after culturing were measured in terms of the length of seminal root by using WinRHIZO system (manufactured by Regent Instruments Inc). For each test plot, an average of the measured values of the seminal root of 4 or 5 individuals was determined.

Experiment [3] has as its system Nicotiana benthamiana. Put plainly: Test Example 6: growth promotion under low-temperature stress by hydroponics of Nicotiana benthamiana, 0.1 ppm. Particulars: 0.1 ppm in medium, low-temperature stress 7 days at 1.5±1.0° C., green leaf area 3 days later, equation (1). As to the method:
as §1
A DMSO solution, which contained one of the compounds 3, 7, 14, 16, 36, 39, 43, 45, 50, 52, 53, 54, 56, 57, 62, 63, 64, 65, 68, 69, 70, 71, 73, 74, 76, 77, 79, 80, 81, 84, 85, 86 and 87 of the present invention at a concentration of 100 ppm, was prepared. The DMSO solution of the compound of the present invention was added at a volume ratio of 1/1,000 to the Murashige•Scoog medium of a ½-fold concentration for the Murashige•Scoog medium (a medium containing 2.3 g of mixed salts (manufactured by Wako Pure Chemical Industries, Ltd.), 200 mg of Myo-inositol (manufactured by Sigma-Aldrich Co. LLC.), 2 mg of nicotinic acid (manufactured by Wako Pure Chemical Industries, Ltd.), 2 mg of pyridoxine hydrochloride (manufactured by Wako Pure Chemical Industries, Ltd.), 20 mg of thiamine hydrochloride (manufactured by Wako Pure Chemical Industries, Ltd.), 20 g of sucrose (manufactured by Wako Pure Chemical Industries, Ltd.), and 1 g of MES (manufactured by DOJINDO LABORATORIES) per 1 L of water and having pH adjusted to 5.8), thereby preparing a medium containing the compound of the present invention at a concentration of 0.1 ppm.
as §2, with “concentration of 0.1 ppm was” for “concentration of 1 ppm was”, “seeds are cultivated for 7” for “seeds are cultured for 7”, “the above medium a test” for “the above medium, a test”
as §3
The nursery plants of the Nicotiana benthamiana having undergone the low-temperature stress treatment were cultivated for 3 days at 22° C., an illuminance of 4,000 lux, and a day length of 16 hours. Thereafter, the area of green leaf was quantified by Scanalyzer HTS (manufactured by LemnaTec GmbH). Moreover, the value of the control plot not treated with the compound that had not yet been subjected to the low-temperature stress treatment was measured in the same manner. A value of a relative leaf area was calculated based on the following equation (1), and if the value of a relative leaf area was 5 or greater, the compound was evaluated to have a mitigating effect. As a result of the evaluation, it was confirmed that when the plant was treated with one of the compounds 3, 7, 14, 16, 36, 39, 43, 45, 50, 52, 53, 54, 56, 57, 62, 63, 64, 65, 68, 69, 70, 71, 73, 74, 76, 77, 79, 80, 81, 84, 85, 86 and 87 of the present invention at 0.1 ppm, the value of a relative leaf area was 5 or greater, compared to the area of green leaf of the control plot not treated with compound. Accordingly, it was confirmed that the treatment using the compound of the present invention brings about a growth promotion effect.
Relative leaf area=100*(a green area of a plot treated with the compound of the present invention−a green area of a control plot not treated with the compound of the present invention)/(a green area of a control plot not treated with the compound of the present invention that has not yet been subjected to low-temperature stress treatment−green area of a control plot not treated with the compound of the present invention) Equation (1): […]

Experiment [4] concerns Rice (variety: Nipponbare). The experiment is described as follows: Test Example 3: promotion of root growth by hydroponics of rice, 0.1 ppm. Particulars: Oryza sativa, hydroponic solution containing the test compound at 0.1 ppm, average of 4 or 5 individuals, read-out: Relative value of length of seminal root (%-untreated control plot). As to the method:
as §4, §5
A DMSO solution, which contained one of the compounds 2, 6, 7, 16, 20, 33, 34, 36, 37, 38, 40, 41, 43, 44, 45, 46, 47, 48, 50, 51, 52, 53, 54, 55, 56, 61, 64, 67, 68, 71, 72, 73, 74, 75, 76, 79, 80, 81 and 83 of the present invention at a concentration of 1,000 ppm, was added to Hoagland hydroponic solution (Hoagland and Arnon, California Agricultural Experiment Station 1950 Circular 347 pp. 34) of ¼-fold concentration at a volume ratio of 1/10,000. In this manner, hydroponic solutions containing one of the compounds 2, 6, 7, 16, 20, 33, 34, 36, 37, 38, 40, 41, 43, 44, 45, 46, 47, 48, 50, 51, 52, 53, 54, 55, 56, 61, 64, 67, 68, 71, 72, 73, 74, 75, 76, 79, 80, 81 and 83 of the present invention at 0.1 ppm were prepared respectively. As an untreated control plot, a hydroponic solution obtained by adding DMSO to Hoagland hydroponic solution of ¼-fold concentration at a volume ratio of 1/10,000 was used.
Rice seeds were soaked in a 1% aqueous sodium hypochlorite solution for 10 minutes, then soaked in a 70% ethanol solution for surface sterilization, and then washed with distilled water. The sterilized seeds were soaked in a hydroponic solution containing the test compound described above at 0.1 ppm and incubated in a dark place for 3 days at 28° C. to perform treatment for hastening germination.
Thereafter, 30 ml of hydroponic solution containing the test compound at 0.1 ppm was dispensed in a plastic tube (diameter of 20 mm×height of 113 mm) of which the side was covered with cardboard to block light. A float prepared using a styrene board and vinyl mesh was floated, and the rice seeds that had undergone the treatment for hastening germination were placed on the float on the surface of the hydroponic solution. The seeds were cultivated for 3 days at 26° C., an illuminance of 4,000 lux of the top surface of the tube, a humidity of 50%, and a day length of 16 hours.
as §6

In patent publication US20150289512A1, “METHOD FOR PROMOTING PLANT GROWTH” (SUMITOMO CHEMICAL COMPANY, LIMITED, priority 2012, published 2015) one finds relative leaf area (% of untreated control) and change in vivo data, which are given here for four compounds.

`COC(=O)c1oc2ccc(C(F)(F)F)cc2c1NC(=O)c1ccccc1` [Compound 66]: in the experiment with Nicotiana benthamiana [1], the relative leaf area (% of untreated control) at 1 ppm was at least 5%.
As for `COC(=O)c1oc2ccccc2c1N` [Compound 57], the change in vivo at 10 ppm in experiment [2] was above 5%. The same compound displayed a relative leaf area (% of untreated control) at 0.1 ppm with Nicotiana benthamiana [3] of at least 5%.
Consider `COC(=O)c1oc2ccccc2c1NC(=O)c1ccccc1` [Compound 59], for which the relative leaf area (% of untreated control) at 1 ppm with Nicotiana benthamiana [1] is at least 5%.
Take `COC(=O)c1oc2ccccc2c1NC=O` [Compound 81]: in experiment [2], the change in vivo at 10 ppm was above 5%. Further, the change in vivo at 0.1 ppm in experiment [4] is above 5%. For the same compound, the relative leaf area (% of untreated control) at 0.1 ppm in the experiment with Nicotiana benthamiana [3] is at least 5%.
